Results as given in patent US10179777B2, “3-(1H-benzimidazol-2-yl)-1H-pyridin-2-one derivatives” (MERCK PATENT GMBH, priority 2015, dated 2019).

How the values were obtained:
[1] = molecular target: T1, ALK2 (GST-modified kinase domain ACVR1(145-509)) (Homo sapiens, UniProt Q04771); test: ALK2 kinase inhibition assay (33P-ATP filter binding, Reaction Biology); assay type: biochemical; conditions: casein substrate, 20 μM ATP (Km ATP), 120 min ambient temperature
T1 construct: N-terminally GST-modified kinase domain ACVR1(145-509); GST (N)
T1 sequence (Q04771 145-509): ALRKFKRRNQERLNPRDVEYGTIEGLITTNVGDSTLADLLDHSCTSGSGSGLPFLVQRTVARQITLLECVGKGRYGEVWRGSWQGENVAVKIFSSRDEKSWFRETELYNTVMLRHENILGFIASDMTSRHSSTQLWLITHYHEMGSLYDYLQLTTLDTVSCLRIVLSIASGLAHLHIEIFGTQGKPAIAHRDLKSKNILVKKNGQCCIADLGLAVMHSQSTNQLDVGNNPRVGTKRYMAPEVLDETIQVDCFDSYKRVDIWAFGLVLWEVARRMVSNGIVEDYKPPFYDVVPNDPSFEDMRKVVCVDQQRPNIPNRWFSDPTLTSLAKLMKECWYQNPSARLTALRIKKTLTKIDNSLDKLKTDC
Description: (§1) The protein sequences of the kinases targeted and accompanying information are described in publically available data base http://www.uniprot.org/uniprot/for ALK1 www.uniprot.org/uniprot/P37023, for ALK2 www.uniprot.org/uniprot/Q04771 and for ALK5 www.uniprot.org/uniprot/P36897. IC50 determination of the novel inhibitors described was performed at Reaction Biology Corp., Malvern, Pa., USA, with assay conditions open to public at www.reactionbiology.com/webapps/site/KinaseDetail.aspx?page=Kinases&id=1, and www.reactionbiology.com/webapps/site/Kinase Assay Protocol.aspx. In addition, they were specified previously in Anastassiadis et al. Nat. Biotechnol. 29(11): 1039-1045. doi:10.1038/nbt.2017.
A2) ALK2 Kinase Inhibition Assay
(§2) was performed similar to procedure A1 with N-terminally GST-modified kinase domain ACVR1(145-509) and 1 mg/ml Casein as substrate in reaction buffer of 20 mM HEPES pH 7.5, 10 mM MgCl2, 1 mM EGTA, 0.02% Brij, 0.02 mg/ml BSA, 0.1 mM Na3VO4, 2 mM DTT, 1% DMSO. […] Reactions were carried out at ambient temperature for 120 min, followed by spotting of the reactions onto P81 ion exchange filter paper (Whatman Inc., Picataway, N.J., USA). Unbound phosphate was removed by extensive washing of filters in 0.75% phosphoric acid. After subtraction of background derived from control reactions without enzyme activity, kinase activity data was expressed as the percent remaining kinase activity in test samples compared to vehicle (DMSO) reactions. IC50 values and curve fits were obtained using Prism (GraphPad Software).

[2] = molecular target: T2, ALK1 (GST-modified kinase domain ACVRL1 (139-503)) (Homo sapiens, UniProt P37023); test: ALK1 kinase inhibition assay (33P-ATP filter binding, Reaction Biology); assay type: biochemical; conditions: casein substrate, 100 μM ATP (Km ATP), 120 min ambient temperature
T2 construct: N-terminally GST-modified kinase domain ACVRL1 (139-503); GST (N)
T2 sequence (P37023 139-503): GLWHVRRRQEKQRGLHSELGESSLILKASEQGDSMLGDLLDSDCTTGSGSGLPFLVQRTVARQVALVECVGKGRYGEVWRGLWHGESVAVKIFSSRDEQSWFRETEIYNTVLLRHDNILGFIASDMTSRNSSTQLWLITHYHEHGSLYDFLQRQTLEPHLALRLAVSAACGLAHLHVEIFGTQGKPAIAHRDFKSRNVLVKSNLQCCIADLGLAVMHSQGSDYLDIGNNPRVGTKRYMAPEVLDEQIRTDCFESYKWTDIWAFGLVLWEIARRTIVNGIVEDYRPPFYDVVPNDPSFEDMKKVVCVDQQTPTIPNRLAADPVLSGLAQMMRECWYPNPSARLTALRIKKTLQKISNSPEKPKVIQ
Description: as §1
A1) ALK1 Kinase Inhibition Assay
as §2, with “performed” for “performed similar to procedure A1”, “domain ACVRL1 (139-503)” for “domain ACVR1(145-509)”, “and 20” for “and 1”

[3] = system: ALK1-mediated SMAD1/5 phosphorylation in HUVEC cells; test: Cell-based immunofluorescence assay for ALK1-mediated SMAD1/5 phosphorylation in HUVEC cells; conditions: Homo sapiens, 1.5 ng/ml BMP-9 with compound for 2 h, % nuclei with pSMAD1/5 signal, read-out: Smad 1/5 IC50
Excerpt: In vitro cell-based Immunofluorescence-Assay for identification of inhibitors of ALK1-mediated SMAD1/5 phosphorylation in HUVEC cells:
ALK1 is a type I cell-surface receptor for the TGF-β superfamily of ligands. In adults ALK1 is mainly expressed on activated endothelial cells, e.g. during wound healing or in tumor angiogenesis. BMP9 and BMP10 are high affinity ligands for ALK1.
BMP9 and BMP10 binding leads to the phosphorylation of so-called Smad1 at Ser463 and Ser465 in the carboxy-terminal motif SSXS, as well as Smad5 and Smad8 at their corresponding sites. These phosphorylated Smads dimerize with the coactivating Smad4 and translocate to the nucleus, where they stimulate transcription of target genes.
Primary endothelial cells (HUVEC: Human Umbilical Vein Endothelial Cells; supplier Promocell) are cultivated in the culture medium obtained from Promocell (with supplements corresponding to 5% FCS) for maximum 5 passages, seeded into black 384-well culture plates with clear bottom (3000 cells/well/30 μl), and incubated for 16-24 hours at 37° C., 5% CO2 and 90% rH.
The following day cells were serum-starved for 2-3 h in order to stop TGF-ß-mediated signalling derived from ligands present in FBS. 1.5 ng/ml BMP-9 was than added in parallel with test compounds for 2 h at 37° C., 5% CO2 in order to identify compounds which block functional activity of ALK1 leading to phosphorylation and nuclear translocation of SMAD1/5/8.
After fixation (15 min 4% Formaldehyd in PBS) and permeabilization (10 min 0.2% Triton X-100 in PBS) an indirect immunocytochemical staining is performed with a specific Phospho-Smad1/5 (Ser463/465) antibody (Cell Signaling #9516) and Alexa488-labelled secondary anti-rabbit-IgG-antibody. DNA staining with Propidium Iodide allowed parallel cell counting. Image acquisition and analysis was performed on an MDS ImageXpress Ultra confocal High Content Reader using the image analysis software MetaXpress. Final read-out were % nuclei with a pSMAD1/5 signal above a defined background.
The final DMSO concentration in the assay was 0.5%. DMSO-treated HUVEC cells served as neutral control (=0%) and cells treated with 10 μM of a reference inhibitor described in a patent served as inhibitor control (=−100%). Raw data were normalised to the neutral and inhibitory references. The assay was performed as dose response (10 compound dilutions, 1 nM-30 μM).

O=c1[nH]cc(-c2ccnc3ccccc23)cc1-c1nc2ccccc2[nH]1 [Compound A2, 3-(1H-Benzimidazol-2-yl)-5-quinolin-4-yl-1H-pyridin-2-one]
IC50 [1]: 0.63 µM
IC50 [2]: 1.4 µM

O=c1[nH]cc(-c2ccncc2)cc1-c1nc2ccc(Cl)cc2[nH]1 [Compound A3, 5-(5-Chloro-1H-benzimidazol-2-yl)-1H-[3,4′]bipyridinyl-6-one]
IC50 [2]: 8.9 µM

Cc1ccc2nc(-c3cc(-c4ccncc4)c[nH]c3=O)[nH]c2c1 [Compound A4, 5-(5-Methyl-1H-benzimidazol-2-yl)-1H-[3,4′]bipyridinyl-6-one]
IC50 [1]: 5.4 µM
IC50 [2]: 9.2 µM

Cc1cccc2[nH]c(-c3cc(-c4ccncc4)c[nH]c3=O)nc12 [Compound A5, 5-(4-Methyl-1H-benzimidazol-2-yl)-1H-[3,4′]bipyridinyl-6-one]
IC50 [1]: 5.7 µM
IC50 [2]: 10 µM

O=c1[nH]cc(-c2ccnc3ccccc23)cc1-c1nc2cc(N3CCOCC3)ccc2[nH]1 [Compound A9, 3-(6-Morpholin-4-yl-1H-benzimidazol-2-yl)-5-quinolin-4-yl-1H-pyridin-2-one]
IC50 [3]: 5.7 µM

O=c1[nH]cc(-c2ccnc3ccccc23)cc1-c1nc2cc(Oc3ccncc3)ccc2[nH]1 [Compound A10, 3-[5-(Pyridin-4-yloxy)-1H-benzimidazol-2-yl]-5-quinolin-4-yl-1H-pyridin-2-one]
IC50 [1]: 0.43 µM
IC50 [2]: 0.95 µM

O=c1[nH]cc(-c2cc(CO)ccc2Cl)cc1-c1nc2cc(N3CCOCC3)ccc2[nH]1 [Compound A11, 5-(2-Chloro-5-hydroxymethyl-phenyl)-3-(5-morpholin-4-yl-1H-benzimidazol-2-yl)-1H-pyridin-2-one]
IC50 [3]: 6.5 µM

O=c1[nH]cc(-c2ccnc3ccccc23)cc1-c1nc2cc(N3CCNCC3)ccc2[nH]1 [Compound A14, 3-(6-Piperazin-1-yl-1H-benzimidazol-2-yl)-5-quinolin-4-yl-1H-pyridin-2-one]
IC50 [3]: 5.7 µM

O=c1[nH]cc(-c2c[nH]c3ccccc23)cc1-c1nc2cc(N3CCNCC3)ccc2[nH]1 [Compound A15, 5-(1H-Indol-3-yl)-3-(6-piperazin-1-yl-1H-benzimidazol-2-yl)-1H-pyridin-2-one]
IC50 [2]: 3.5 µM

O=c1[nH]cc(-c2ccnc3ccoc23)cc1-c1nc2cc(N3CCNCC3)ccc2[nH]1 [Compound A18, 5-Furo[3,2-b]pyridin-7-yl-3-(5-piperazin-1-yl-1H-benzimidazol-2-yl)-1H-pyridin-2-one]
IC50 [3]: 2 µM

COCc1cccc(-c2c[nH]c(=O)c(-c3nc4cc(N5CCNCC5)ccc4[nH]3)c2)c1 [Compound A19, 5-(3-Methoxymethyl-phenyl)-3-(5-piperazin-1-yl-1H-benzimidazol-2-yl)-1H-pyridin-2-one]
IC50 [3]: 11 µM

CN1CCN(c2ccc3[nH]c(-c4cc(-c5ccncc5)c[nH]c4=O)nc3c2)CC1 [Compound A28, 5-[5-(4-Methyl-piperazin-1-yl)-1H-benzimidazol-2-yl]-1H-[3,4′]bipyridinyl-6-one]
IC50 [1]: 0.099 µM

CN1CCN(c2ccc3[nH]c(-c4cc(-c5cnn(C)c5)c[nH]c4=O)nc3c2)CC1 [Compound A30, 3-[5-(4-Methyl-piperazin-1-yl)-1H-benzimidazol-2-yl]-5-(1-methyl-1H-pyrazol-4-yl)-1H-pyridin-2-one]
IC50 [1]: 0.71 µM
IC50 [2]: 1.8 µM

CN1CCN(c2ccc3[nH]c(-c4cc(-c5cccnc5)c[nH]c4=O)nc3c2)CC1 [Compound A31, 5-[5-(4-Methyl-piperazin-1-yl)-1H-benzimidazol-2-yl]-1H-[3,3′]bipyridinyl-6-one]
IC50 [1]: 3.4 µM
IC50 [2]: 5.5 µM

O=c1[nH]cc(-c2ccnc3[nH]ccc23)cc1-c1nc2ccccc2[nH]1 [Compound A39, 3-(1H-Benzimidazol-2-yl)-5-(1H-pyrrolo[2,3-b]pyridin-4-yl)-1H-pyridin-2-one]
IC50 [1]: 0.12 µM
IC50 [2]: 0.19 µM

COc1ccc2[nH]c(-c3cc(-c4ccnc5[nH]ccc45)c[nH]c3=O)nc2c1 [Compound A42, 3-(5-Methoxy-1H-benzimidazol-2-yl)-5-(1H-pyrrolo[2,3-b]pyridin-4-yl)-1H-pyridin-2-one]
IC50 [3]: 7.9 µM

NCc1ccc2[nH]c(-c3cc(-c4ccncc4)c[nH]c3=O)nc2c1 [Compound A54, 5-(5-Aminomethyl-1H-benzimidazol-2-yl)-1H-[3,4′]bipyridinyl-6-one]
IC50 [1]: 1.1 µM
IC50 [2]: 2.6 µM

CC(=O)NCc1ccc2[nH]c(-c3cc(-c4ccncc4)c[nH]c3=O)nc2c1 [Compound A55, N-[2-(6-Oxo-1,6-dihydro-[3,4′]bipyridinyl-5-yl)-1H-benzimidazol-5-ylmethyl]-acetamide]
IC50 [1]: 3.1 µM
IC50 [2]: 6.8 µM

CCN(CC)CCNC(=O)c1ccc2nc(-c3cc(-c4ccncc4)c[nH]c3=O)[nH]c2c1 [Compound A57, 2-(6-Oxo-1,6-dihydro-[3,4′]bipyridinyl-5-yl)-3H-benzimidazole-5-carboxylic acid (2-diethylamino-ethyl)-amide]
IC50 [2]: 3.1 µM

CN1CCC(NC(=O)c2ccc3[nH]c(-c4cc(-c5ccncc5)c[nH]c4=O)nc3c2)CC1 [Compound A58, 2-(6-Oxo-1,6-dihydro-[3,4′]bipyridinyl-5-yl)-3H-benzimidazole-5-carboxylic acid (1-methyl-piperidin-4-yl)-amide]
IC50 [1]: 3.1 µM
IC50 [2]: 3.3 µM
